Measurements: patent US20250101436A1, “APTAMERS AND SMALL MOLECULE LIGANDS” (MeiraGTx UK II Limited, priority 2021, published 2025)

Tested on: N5-12G6 riboswitch
Test: Firefly luciferase assay, N5-12G6 riboswitch in HEK293 cells
Conditions: for fold induction at 2 µM: HEK293, read-out: Fold induction 2 μM (HEK), 12G6 riboswitch, luciferase, HEK293, 2 μM; for regulation of luciferase expression (FIG. 4e): HEK293; for fold induction at 25 µM: HEK293, read-out: Fold induction 25 μM (HEK), 12G6 riboswitch, luciferase, HEK293, 25 μM

SMILES | fold induction at 2 µM (Homo sapiens) | also measured
C[C@@H]1CNCCN1c1ccncc1NCc1cc(Cl)c2nccnc2c1 [compound 066, (R)—N-((8-chloroquinoxalin-6-yl)methyl)-4-(2-methylpiperazin-1-yl)pyridin-3-amine] | 2 | 
C[C@@H]1CNCCN1c1ccncc1NCc1cc(F)c2nccnc2c1 [compound 065, (R)—N-((8-fluoroquinoxalin-6-yl)methyl)-4-(2-methylpiperazin-1-yl)pyridin-3-amine] | 21.7 | 
Clc1cc2nccnc2cc1CNc1cnccc1N1CCNCC1 [compound 013, N-((7-Chloroquinoxalin-6-yl)methyl)-4-(piperazin-1-yl)pyridin-3-amine] |  | regulation of luciferase expression (FIG. 4e) (12G6 riboswitch): regulate expression in a dose-dependent fashion; fold induction at 25 µM (Homo sapiens): 314
FC(F)(F)C1CNCCN1c1ccncc1NCc1ccc2nccnc2c1 (stereo not drawn) [compound 037, N-(quinoxalin-6-ylmethyl)-4-(2-(trifluoromethyl)piperazin-1-yl)pyridin-3-amine] |  | fold induction at 25 µM (Homo sapiens): 6.1
Clc1cc2nccnc2cc1CNc1cncc(Cl)c1N1CCNCC1 [compound 054, 5-chloro-N-((7-chloroquinoxalin-6-yl)methyl)-4-(piperazin-1-yl)pyridin-3-amine] | 10.6 | 
Clc1cncc(NCc2ccc3nccnc3c2)c1O[C@@H]1CCNC1 [compound 110, (R)-5-chloro-4-(pyrrolidin-3-yloxy)-N-(quinoxalin-6-ylmethyl)pyridin-3-amine] | 43.1 | 
Cc1cncc(NCc2cc(Cl)c3nccnc3c2)c1N1CCNCC1 [compound 085, N-((8-chloroquinoxalin-6-yl)methyl)-5-methyl-4-(piperazin-1-yl)pyridin-3-amine] | 5.4 | 
Clc1cc(CNc2cnccc2O[C@@H]2CCNC2)cc2nccnc12 [compound 106, (R)—N-((8-chloroquinoxalin-6-yl)methyl)-4-(pyrrolidin-3-yloxy)pyridin-3-amine] | 22.2 | 
Clc1cc(CNc2cnccc2N2CCNCC2)cc2nccnc12 [compound 049, N-((8-chloroquinoxalin-6-yl)methyl)-4-(piperazin-1-yl)pyridin-3-amine] | 5.7 | 
Fc1cc2nccnc2cc1CNc1cnccc1N1CCNCC1 [compound 050, N-((7-fluoroquinoxalin-6-yl)methyl)-4-(piperazin-1-yl)pyridin-3-amine] | 23.5 | 
Cc1cncc(NCc2ccc3nccnc3c2)c1N1CCN[C@@H](C)C1 [compound 104, (S)-5-methyl-4-(3-methylpiperazin-1-yl)-N-(quinoxalin-6-ylmethyl)pyridin-3-amine] | 33.3 | 
Brc1cncc(NCc2ccc3nccnc3c2)c1OC1CNC1 [compound 112, 4-(azetidin-3-yloxy)-5-bromo-N-(quinoxalin-6-ylmethyl)pyridin-3-amine] | 40.9 | 
Cc1cncc(NCc2ccc3nccnc3c2)c1O[C@@H]1CCNC1 [compound 111, (R)-5-methyl-4-(pyrrolidin-3-yloxy)-N-(quinoxalin-6-ylmethyl)pyridin-3-amine] | 74 | 
Fc1cc(CNc2cncc(Cl)c2N2CCNCC2)cc2nccnc12 [compound 053, 5-chloro-N-((8-fluoroquinoxalin-6-yl)methyl)-4-(piperazin-1-yl)pyridin-3-amine] |  | Fold induction 2 μM (HEK) (12G6 riboswitch, luciferase, HEK293, 2 μM): 16.8 fold
c1cc(O[C@@H]2CCNC2)c(NCc2ccc3nccnc3c2)cn1 [compound 021, (R)-4-(pyrrolidin-3-yloxy)-N-(quinoxalin-6-ylmethyl)pyridin-3-amine] | 68.4 | fold induction at 3.3 µM (Homo sapiens, HEK293, read-out: Fold induction 3.3 μM (HEK), 12G6 riboswitch, luciferase, HEK293, 3.3 μM): 62
FC(F)(F)c1cc(CNc2cnccc2O[C@@H]2CCNC2)cc2nccnc12 [compound 124, (R)-4-(pyrrolidin-3-yloxy)-N-((8-(trifluoromethyl)quinoxalin-6-yl)methyl)pyridin-3-amine] | 3 | 
Fc1cc2nccnc2cc1CNc1cncc(Cl)c1O[C@@H]1CCNC1 [compound 120, (R)-5-chloro-N-((7-fluoroquinoxalin-6-yl)methyl)-4-(pyrrolidin-3-yloxy)pyridin-3-amine] | 24.7 | 
Clc1cc2nccnc2cc1CNc1cnccc1N1CCCNCC1 [compound 091, N-((7-chloroquinoxalin-6-yl)methyl)-4-(1,4-diazepan-1-yl)pyridin-3-amine] | 28.4 | 
CN(C)CCOc1ccncc1NCc1ccc2nccnc2c1 [compound 047, 4-(2-(dimethylamino)ethoxy)-N-(quinoxalin-6-ylmethyl)pyridin-3-amine] | 2.7 | 
Fc1cncc(NCc2ccc3nccnc3c2)c1N1CCCNCC1 [compound 092, 4-(1,4-diazepan-1-yl)-5-fluoro-N-(quinoxalin-6-ylmethyl)pyridin-3-amine] | 34.9 | 
Clc1cc(CNc2cnccc2N2CCCNCC2)cc2nccnc12 [compound 089, N-((8-chloroquinoxalin-6-yl)methyl)-4-(1,4-diazepan-1-yl)pyridin-3-amine] | 4.8 | 

SMILES | fold induction at 2 µM (Homo sapiens) | also measured
Fc1cncc(NCc2cc(F)c3nccnc3c2)c1N1CCCNCC1 [compound 095, 4-(1,4-diazepan-1-yl)-5-fluoro-N-((8-fluoroquinoxalin-6-yl)methyl)pyridin-3-amine] | 8.9 | 
C[C@H]1CNCCN1c1ccncc1NCc1cc2nccnc2cc1Cl [compound 063, (S)—N-((7-chloroquinoxalin-6-yl)methyl)-4-(2-methylpiperazin-1-yl)pyridin-3-amine] | 2.7 | 
c1cc(OC2CNC2)c(NCc2ccc3nccnc3c2)cn1 [compound 022, 4-(Azetidin-3-yloxy)-N-(quinoxalin-6-ylmethyl)pyridin-3-amine] | 43.2 | 
c1cc(N2C3CNCC2C3)c(NCc2ccc3nccnc3c2)cn1 [compound 031, 4-(3,6-diazabicyclo[3.1.1]heptan-6-yl)-N-(quinoxalin-6-ylmethyl)pyridin-3-amine] |  | fold induction at 25 µM (Homo sapiens): 17.9
Fc1cncc(NCc2ccc3nccnc3c2F)c1N1CCNCC1 [compound 079, 5-fluoro-N-((5-fluoroquinoxalin-6-yl)methyl)-4-(piperazin-1-yl)pyridin-3-amine] | 4.4 | 
Clc1cc2nccnc2cc1CNc1cnccc1O[C@@H]1CCNC1 [compound 108, (R)—N-((7-chloroquinoxalin-6-yl)methyl)-4-(pyrrolidin-3-yloxy)pyridin-3-amine] | 37.5 | 
Clc1cc2nccnc2cc1CNc1cnccc1N1C[C@@H]2C[C@H]1CN2 [compound 097, 4-((1S,4S)-2,5-diazabicyclo[2.2.1]heptan-2-yl)-N-((7-chloroquinoxalin-6-yl)methyl)pyridin-3-amine] | 2.6 | 
Fc1cncc(NCc2ccc3nccnc3c2)c1O[C@@H]1CCNC1 [compound 109, (R)-5-fluoro-4-(pyrrolidin-3-yloxy)-N-(quinoxalin-6-ylmethyl)pyridin-3-amine] | 54.6 | 
Fc1c(CNc2cnccc2N2CCNCC2)ccc2nccnc12 [compound 067, N-((5-fluoroquinoxalin-6-yl)methyl)-4-(piperazin-1-yl)pyridin-3-amine] | 3.4 | 
C[C@H]1CN(c2ccncc2NCc2cc(Cl)c3nccnc3c2)CCN1 [compound 101, (S)—N-((8-chloroquinoxalin-6-yl)methyl)-4-(3-methylpiperazin-1-yl)pyridin-3-amine] | 2.2 | 
CC1CNCCN1c1ccncc1NCc1ccc2nccnc2c1 (stereo not drawn) [compound 015, 4-(2-Methylpiperazin-1-yl)-N-(quinoxalin-6-ylmethyl)pyridin-3-amine] |  | regulation of luciferase expression (FIG. 4e) (12G6 riboswitch): regulate expression in a dose-dependent fashion; fold induction at 25 µM (Homo sapiens): 329
FC(F)c1cncc(NCc2ccc3nccnc3c2)c1N1CCNCC1 [compound 076, 5-(difluoromethyl)-4-(piperazin-1-yl)-N-(quinoxalin-6-ylmethyl)pyridin-3-amine] | 117 | 
c1cc(N2CC3CC2CN3)c(NCc2ccc3nccnc3c2)cn1 (stereo not drawn) [compound 030, 4-(2,5-diazabicyclo[2.2.1]heptan-2-yl)-N-(quinoxalin-6-ylmethyl)pyridin-3-amine] |  | fold induction at 25 µM (Homo sapiens): 82.9
Clc1cc2nccnc2cc1CNc1cnccc1N1C[C@H]2C[C@@H]1CN2 [compound 098, 4-((1R,4R)-2,5-diazabicyclo[2.2.1]heptan-2-yl)-N-((7-chloroquinoxalin-6-yl)methyl)pyridin-3-amine] | 4.5 | 
Clc1cc2nccnc2cc1CNc1cnccc1OC1CNC1 [compound 029, 4-(Azetidin-3-yloxy)-N-((7-chloroquinoxalin-6-yl)methyl)pyridin-3-amine] | 41.3 | 
C[C@H]1CN(c2c(Cl)cncc2NCc2ccc3nccnc3c2)CCN1 [compound 025, (S)-5-Chloro-4-(3-methylpiperazin-1-yl)-N-(quinoxalin-6-ylmethyl)pyridin-3-amine] | 42.6 | 
Cc1cncc(NCc2cc3nccnc3cc2Cl)c1N1CCNCC1 [compound 087, N-((7-chloroquinoxalin-6-yl)methyl)-5-methyl-4-(piperazin-1-yl)pyridin-3-amine] | 20.9 | 
C[C@H]1CN(c2ccncc2NCc2cc(F)c3nccnc3c2)CCN1 [compound 059, (S)—N-((8-fluoroquinoxalin-6-yl)methyl)-4-(3-methylpiperazin-1-yl)pyridin-3-amine] | 15.8 | 
Fc1cncc(NCc2cc(Cl)c3nccnc3c2)c1N1CCNCC1 [compound 081, N-((8-chloroquinoxalin-6-yl)methyl)-5-fluoro-4-(piperazin-1-yl)pyridin-3-amine] | 3.9 | 
CC1CN(c2ccncc2NCc2ccc3nccnc3c2)CCN1 (stereo not drawn) [compound 016, 4-(3-Methylpiperazin-1-yl)-N-(quinoxalin-6-ylmethyl)pyridin-3-amine] |  | regulation of luciferase expression (FIG. 4e) (12G6 riboswitch): regulate expression in a dose-dependent fashion; fold induction at 25 µM (Homo sapiens): 287
